What is called inhibition is the change of the read-out against control, counted positive when it falls. Usually EC50 stands for the midpoint of the concentration-response curve. Higher therefore signals lower potency in that assay. By ED50 is commonly meant the dose that gives a 50% effect, or the effect in half of the subjects. Lower therefore signals greater potency.

The conditions of assay [1]: in vivo; cited from earlier work.
The subject of assay [2] is uptake of 14C-5-hydroxytryptamine. Briefly: Inhibition of uptake of 14C-5-HT in mouse midbrain slices after in vivo (i.p.) administration. The following applies: i.p. half an hour before killing, dose producing 50 percent decrease of active uptake; for ED50: Mus musculus, ip, 0.5 h. As to the method: (§1) It is not possible by experimental means to induce depressions in laboratory animals. In order to evaluate a possible anti-depressive effect of new substances biochemical-pharmacological test methods must be resorted to. One such method, which seems to give a good indication of the potential anti-depressive effects of the test substances, is described in Europ.
(§2) The test substances were administered intraperitoneally half an hour before the animals were killed. […] The incubation time was 5 minutes with 5 minutes of preincubation before the labelled amines were added. The slices were dissolved in Soluene® and the amounts of radio-active amines taken up were determined by liquid scintillation. […] Active uptake is defined as that part of the radioactive uptake which is inhibited by a high concentration of cocaine.

Assay [3] concerns uptake of 3H-noradrenaline. Put plainly: Inhibition of uptake of 3H-noradrenaline in mouse midbrain slices after in vivo (i.p.) administration. The following applies: ip, at the dose 101 μmole/kg i.p., read-out: inhibition recorded (uptake of 3H-NA, in vivo). As to the method:
as §2, with “It is not possible by experimental means to induce depressions in laboratory animals. In order to evaluate a possible anti-depressive effect of new substances biochemical-pharmacological test methods must be resorted to. One such method, which seems to give a good indication of the potential anti-depressive effects of the test substances, is described in Europ. […] The test” for “The test”

The test system of assay [4] is uptake of 14C-5-hydroxytryptamine. Briefly: Inhibition of uptake of 14C-5-HT in mouse midbrain slices, in vitro. Type of assay: biochemical. The following applies: 5 minutes preincubation, 5 minutes incubation. As to the method:
as §1, §2
In the in vitro method, slices of mouse midbrain were preincubated for 5 minutes with a solution of the compound to be tested and then incubated as described above.

Counter-ions that a name gives are not always drawn.

Regarding `CN(C)CC=C(c1ccccc1)c1ccccc1`, the “antidepressive effect” value in assay [1] was “have an antidepressive effect”.

As to `CNC/C=C(/c1ccc(Br)cc1)c1cccnc1` [H, Z, hydrochloride, 3-(4-bromophenyl)-N-methyl-3-(3-pyridyl)-allylamine], the “Uptake of 14C-5-HT, in vivo ED50” value in assay [2] (30 min) is recorded as 15.2 μmole/kg i.p. Also, in assay [3], the inhibition at 101 µmol/kg worked out at 38%.

For the compound `CNC/C=C(/c1ccc(Br)cc1)c1cccnc1` [H, Z, oxalate, 3-(4-bromophenyl)-N-methyl-3-(3-pyridyl)-allylamine], the 50% effective concentration (EC50) in assay [4] stood at 500 nM. In assay [2], this compound returned an ED50 of 18 µmol/kg.

Take `CNCC=C(c1ccc(Br)cc1)c1cccnc1` [H, mixture, oxalate, 3-(4-bromophenyl)-N-methyl-3-(3-pyridyl)-allylamine]: the response in assay [4] was half-maximal at 500 nM (EC50). The same compound had a median effective dose (ED50) in assay [2] of 32 µmol/kg.

These data come from US4186202A, “Phenyl-pyridylamine derivatives” (priority 1974, dated 1980).
